Data from patent US20170216252A1, “ANTI-BACTERIAL PYRUVATE KINASE MODULATOR COMPOUNDS, COMPOSITIONS, USES AND METHODS” (SIMON FRASER UNIVERSITY, priority 2014, published 2017).
≈ marks a conversion by molar mass, not a printed value. Where “and” joins values, the source holds several entries; their conditions need not be identical. Equal values may be shown once. Read-outs that look alike come from different tables or passages of the source.

How the values were obtained:
[1] = target: T1, MRSA PK (Staphylococcus aureus, UniProt Q6GG09); test: MRSA PK activity, continuous LDH-coupled assay; type: biochemical, S. aureus (MRSA strain Sanger 252); settings: for inhibition at 10 µM: read-out: % Inhibition MRSA PK
T1 construct: His tag (pET-28a(+) vector) (N); made in house; host or cells: E. coli BL-21 (DE3)
T1 sequence (Q6GG09 whole entry): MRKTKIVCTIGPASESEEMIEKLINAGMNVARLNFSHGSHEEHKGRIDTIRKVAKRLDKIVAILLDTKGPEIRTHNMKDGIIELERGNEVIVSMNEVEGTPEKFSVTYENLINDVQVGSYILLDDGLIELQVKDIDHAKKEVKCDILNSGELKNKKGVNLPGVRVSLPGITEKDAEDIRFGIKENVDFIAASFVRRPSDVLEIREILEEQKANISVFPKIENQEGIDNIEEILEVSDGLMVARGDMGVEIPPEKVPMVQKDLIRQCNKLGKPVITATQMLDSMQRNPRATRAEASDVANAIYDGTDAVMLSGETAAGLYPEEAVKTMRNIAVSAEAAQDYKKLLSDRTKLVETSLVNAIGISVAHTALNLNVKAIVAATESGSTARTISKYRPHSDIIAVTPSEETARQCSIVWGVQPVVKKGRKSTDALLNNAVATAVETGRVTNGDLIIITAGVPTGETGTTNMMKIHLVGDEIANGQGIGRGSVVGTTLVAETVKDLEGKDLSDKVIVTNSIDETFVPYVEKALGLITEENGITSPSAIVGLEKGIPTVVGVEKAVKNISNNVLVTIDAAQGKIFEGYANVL
Procedure, shortened: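 Purified His-tagged MRSA PK (15 nM, E. coli-expressed) started reactions run up to 5 min at 30 °C. Activity was followed continuously by LDH-coupled NADH oxidation at 340 nm, with DMSO ≤1%. IC50 came from four-parameter variable-slope fits.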

[2] = test system: S. aureus ATCC 29213; test: In vitro susceptibility, broth microdilution MIC; type: cell-based, Staphylococcus aureus; settings: Staphylococcus aureus
Procedure, shortened: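 The MIC against S. aureus 29213 was determined by CLSI 2-fold serial broth microdilution in Mueller Hinton broth. Plates were incubated for 18–24 h at 37 °C and read at OD600 with background subtracted. The MIC was the lowest concentration giving complete growth inhibition versus compound-free wells.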

[3] = test system: P. aeruginosa (PA01); test: Broth microdilution MIC; type: cell-based; settings: Pseudomonas aeruginosa
Method: (§1) The antimicrobial activities of PK inhibitor candidates were determined using the 96-well microtiter standard 2-fold serial broth microdilution method as described by CLSI (formerly NCCLS) with the various gram-positive and gram-negative bacteria species mentioned above. Bacteria from a single colony were grown, overnight in either BHI Broth (VRE), mueller hinton broth (S. aureus 29213; MRSA USA400) or L-broth (E. coli, P. aeruginosa, S. typhimuriu, K. Pneumonia and A. baumannii). […] Culture plates were incubated for 18-24 h at 37° C., and optical density at 600 nm (OD600) was measured using a Benchmark Plus™ microplate spectrophotometer (Bio-Rad™). The absorbance control values for the series containing CAMHB and inhibitor were subtracted as background from the corresponding infected wells. The MIC was defined as the lowest concentration of test compound leading to complete inhibition of cell growth in relationship to compound-free control wells as determined by optical density. […] All assays were run in triplicate (Tables 1-6) or duplicate. Experiments were replicated at least twice to verify reproducibility using the above conditions.
(§2) The antimicrobial activity of selected compounds against the gram negative bacteria Klebsiella pneumoniae, Acinetobacter baumannii, E. coli, Pseudomonas aeruginosa and Salmonella typhimurium, as well as additional gram positive bacteria, including drug-resistant strains, was tested according to the procedures provided under “General Methodologies” above.

[4] = test system: K. pneumoniae (C238); test: Broth microdilution MIC; type: cell-based; settings: Klebsiella pneumoniae; K. pneumoniae (C238); read-out: MIC (μg/mL) A
Method: as §1, §2

[5] = test system: A. baumannii (ATCC 19606); test: Broth microdilution MIC; type: cell-based; settings: Acinetobacter baumannii, ATCC19606; A. baumannii (ATCC 19606); read-out: MIC (μg/mL) B
Method: as §1, §2

[6] = test system: S. typhimurium (SL 1344); test: Broth microdilution MIC; type: cell-based; settings: Salmonella enterica
Method: as §1, §2

[7] = test system: S. pyogenes (ATCC700294); test: Broth microdilution MIC; type: cell-based; settings: Streptococcus pyogenes
Method: as §1, §2

[8] = test system: MRSA MW2 (USA400); test: Broth microdilution MIC; type: cell-based; settings: Staphylococcus aureus; MRSA MW2 (USA400); read-out: MIC (μg/mL) G
Method: as §1, §2

[9] = Tables 1-6, 2 mM ADP, 10 mM PEP, 15 nM PK, read-out: IC50
[10] = ATCC29213, Tables 1-6 and text, minimum concentration to give >98% inhibition of growth, read-out: MIC

Row | SMILES | IC50 [1, 9] | inhibition at 10 µM [1] [%] | MIC [2, 10] [µg/mL] | melting point [°C] | also measured
1 | Brc1ccc2cc(CCc3cc4ccc(Br)cc4[nH]3)[nH]c2c1 [Compound 28a, 1,2-bis(6-bromo-1H-indol-2-yl)ethane] | 6 nM and 6.5 nM | 93.4 | > 64 | – | –
2 | Brc1ccc2[nH]c(C#Cc3cc4ccc(Br)cc4[nH]3)cc2c1 [Compound 25c, 6-Bromo-2-((5-bromo-1H-indol-2-yl)ethynyl)-1H-indole] | 4.7 nM | 86.3 | 16 (≈ 38.6 µM) | 236 to 237 | –
3 | CN1CCN(CCn2c(-c3cc4ccc(Br)cc4[nH]3)cc3cc(Br)ccc32)CC1 [Compound 20a, 5,6′-Dibromo-1-(2-(4-methylpiperazin-1-yl)ethyl)-1H,1′H-2,2′-biindole] | 2 nM | 100 | 4 (≈ 7.75 µM) | 140 | –
4 | Brc1ccc2[nH]c(-c3cc4ccc(Br)cc4[nH]3)cc2c1 [Compound 10c, 5,6-Bibromo-1H,1′H-2,2′-biiindole] | 2.2 nM | 97.8 | 0.3 (≈ 0.769 µM) | 270 to 272 | –
5 | Brc1ccc2cc(-c3cc4cc(Br)c(Br)cc4[nH]3)[nH]c2c1 [Compound 10k, 5,6,6′-Tribromo-1H,1′H-2,2′-biindole] | 1.5 nM | 94.1 | 0.5 (≈ 1.07 µM) | – | –
6 | COc1cc(-c2cc3ccccc3[nH]2)ccc1-c1cc2ccc(Br)cc2[nH]1 [Compound 33e, 2-(4-(1H-indol-2-yl)-2-methoxyphenyl)-6-bromo-1H-indole] | 2.1 nM | 62.2 | > 64 | – | –
7 | Brc1ccc2cc(/C=C/c3cc4ccccc4[nH]3)[nH]c2c1 [Compound 27a, (E)-2-(2-(1H-indol-2-yl)vinyl)-6-bromo-1H-indole] | 4.5 nM | 93.4 | > 64 | – | –
8 | Cn1c(-c2cc3ccc(Br)cc3[nH]2)cc2cc(Br)ccc21 [Compound 12a, 5,6′-Dibromo-1-methyl-1H,1′H-2,2′-biindole] | 1 nM | 99 | > 64 | 180 to 182 | –
9 | Brc1cc2cc(-c3cc4cc(Br)c(Br)cc4[nH]3)[nH]c2cc1Br [Compound 10l, 5,5′,6,6′-Tetrabromo-1H,1′H-2,2′-biindole] | 2 nM | 97.6 | – | – | MIC ([2]; ATCC29213): > 64 µg/mL
10 | Brc1ccc2cc(-c3cc4ccc(Br)cc4[nH]3)[nH]c2c1 [Compound 10b, 6,6′-Dibromo-1H,1′H-2,2′-biindole] | 7 nM | 84.9 | 16 (≈ 41 µM) | 266 to 267 | –
11 | O=C(c1c(-c2cc3cc(Cl)ccc3[nH]2)[nH]c2cc(Br)ccc12)C(F)(F)F [Compound 178, 1-(6-bromo-5′-chloro-1H,1′H-[2,2′-biindol]-3-yl)-2,2,2-trifluoroethan-1-one] | – | – | – | – | MIC [3]: > 64 µg/mL; MIC [4]: 1 µg/mL (≈ 2.26 µM); MIC [5]: > 64 µg/mL; MIC [6]: > 64 µg/mL; MIC [7]: 1 µg/mL (≈ 2.26 µM); MIC [8]: 0.5 µg/mL (≈ 1.13 µM); IC50 [1]: < 50 nM; MIC ([2]; ATCC29213, S. aureus (ATCC29213), Table 9, read-out: MIC (μg/mL) H): 1 µg/mL (≈ 2.26 µM)
12 | Brc1ccc2[nH]c(-c3cc4cc(Br)ccc4[nH]3)cc2c1 [Compound 10i, 5,5′-Bibromo-1H,1′H-2,2′-biindole] | 3 nM | 71 | > 64 | 304 to 306 | –
13 | Brc1ccc2cc(-c3nc4ccccc4s3)[nH]c2c1 [Compound 22a, 2-(6-Bromo-1H-indol-2-yl)benzo[d]thiazole] | 152 nM | 89.8 | > 64 | – | –
14 | Brc1ccc2cc(-c3cc4ccccc4o3)[nH]c2c1 [Compound 22b, 2-(Benzofuran-2-yl)-6-bromo-1H-indole] | 108 nM | 95.9 | > 64 | 196 to 198 | –
15 | OCCn1c(-c2cc3ccc(Br)cc3[nH]2)cc2cc(Br)ccc21 [Compound 17, 2-(5,6′-Dibromo-1H, 1′H-[2,2′-biindol]-1-yl)ethanol] | 1.3 nM | 101 | 2 (≈ 4.61 µM) | – | –
16 | Brc1ccc2c(c1)cc(-c1cc3ccc(Br)cc3[nH]1)n2CCN1CCOCC1 [Compound 20b, 4-(2-(5,6′-dibromo-1H,1′H-[2,2′-biindol]-1-yl)ethyl)morpholine] | 1.2 nM | 101 | > 64 | – | –
